Data on one compound can be found in patent US8691777B2, “Combination therapy” (Emory University, priority 2011, dated 2014).

Experiment [1] concerns tsc2ang1 cells. In words: proliferation assay with tsc2ang1 cells (Coulter counter). It is filed as cell-based, murine. Particulars: rapamycin 5 nM, imatinib 10 μM, 24 hours, vs DMSO control. The method, then: 10^4 tsc2ang1 cells per well were plated in 24-well dishes in triplicate. The next day, fresh medium containing the compounds or vehicle controls was added. Cells were incubated at 37° C. Tsc2ang1 (ATCC CRL 2620) is a murine cell line derived from a cutaneous sarcoma that arose in the extremity of a mouse heterozygous for tsc2; these mice develop cutaneous sarcomas at a frequency of about 10 to 15%. The cells were cultured in complete DMEM medium supplemented with 10% FBS (Sigma Aldrich, St Louis, Mo.). […] Cells were treated with vehicle control (DMSO), rapamycin (5 nM), imatinib (10 μM) or imatinib (10 μM)+rapamycin (5 nM) (shown along X-axis) for 24 h and counted using a Coulter counter. The Y-axis represents cell number with error bars representing the SEM.

The subject of experiment [2] is MMP-2. In words: gelatin zymography of conditioned media of tsc2ang1 cells. It is filed as cell-based, murine. Particulars: 24 hours, vs DMSO-treated control.
Method: The presence and activity of specific MMP species were detected using gelatin zymography. An aliquot of each conditioned media sample was centrifuged at 4,000 rpm for 1-5 min at 4° C. and supernatant was used. A buffer of 4% SDS, 0.15 mol/L Tris (pH 6.8), 20% glycerol and 0.5% (w/v) bromophenol blue was added to the conditioned media sample. […] Gels were then incubated over night at 37° C. in substrate buffer containing 50 mmol/L Tris-HCL (pH 8), 5 mmol/L CaCl2 and 0.02% NaN3. After incubation, gels were stained for 30 min in 0.5% Coomassie Blue R-250 dissolved in acetic acid, isopropyl alcohol and water (1:3:6); destained in acetic acid, ethanol and water (1:3:6). The finalized gel was scored for the presence/absence MMP activity by a blinded evaluator and photographed.
For experiment [3], the target named is PDGFR-β (Mus musculus, UniProt P05622). In words: Western blot of PDGFR-β and phospho-PDGFR-β in Tsc2ang1 cells. Particulars: imatinib 10 μm, rapamycin 10 nM, vs DMSO control. (A western blot detects proteins with antibodies after separation by electrophoresis.)
Method: The impact of imatinib (10 μm), rapamycin (10 nM), and a combination of rapamycin and imatinib on the phosphorylated PDGFR-β signaling pathway was tested in Tsc2ang1cells.
Lysates of Tsc2ang1 cells treated with vehicle or indicated drugs were prepared in NP-40 lysis buffer (1% NP-40, 150 mmol/L NaCl, 10% glycerol, 20 mmol/L HEPES, 1 mmol/L phenylmethylsulfonyl fluoride, 2.5 mmol/L EDTA, 100 μmol/L Na3VO4, and 1% aprotinin) Protein concentration in cleared lysates was determined using an Eppendorf BioPhotometer. Samples were resolved using SDS-PAGE (National Diagnostics) and transferred to nitrocellulose membranes. The membranes were blocked with 5% nonfat dry milk in 10 mmol/L Tris/0.1% Tween 20/100 mmol/L NaCl and incubated with primary antibodies followed by horseradish peroxidase-conjugated secondary antibody. The immunoreactive bands were visualized by enhanced chemiluminescence (Amersham Biosciences). The antibodies used were: Phospho-PDGFR-β antibody (Tyr 1021) (Cell signaling Laboratories); Phospho-PDGFR-β antibody (Tyr 1009) (Cell Signaling Laboratories); Aurora kinase A antibody (4718) (Cell signaling Laboratories), Aurorakinase B (3094) antibody (Cell signaling Laboratories) monoclonal anti-β-tubulin antibody (Sigma) was used as a loading control.

Structures are written as SMILES.

PDGFR-β, sequence (P05622 32-1098): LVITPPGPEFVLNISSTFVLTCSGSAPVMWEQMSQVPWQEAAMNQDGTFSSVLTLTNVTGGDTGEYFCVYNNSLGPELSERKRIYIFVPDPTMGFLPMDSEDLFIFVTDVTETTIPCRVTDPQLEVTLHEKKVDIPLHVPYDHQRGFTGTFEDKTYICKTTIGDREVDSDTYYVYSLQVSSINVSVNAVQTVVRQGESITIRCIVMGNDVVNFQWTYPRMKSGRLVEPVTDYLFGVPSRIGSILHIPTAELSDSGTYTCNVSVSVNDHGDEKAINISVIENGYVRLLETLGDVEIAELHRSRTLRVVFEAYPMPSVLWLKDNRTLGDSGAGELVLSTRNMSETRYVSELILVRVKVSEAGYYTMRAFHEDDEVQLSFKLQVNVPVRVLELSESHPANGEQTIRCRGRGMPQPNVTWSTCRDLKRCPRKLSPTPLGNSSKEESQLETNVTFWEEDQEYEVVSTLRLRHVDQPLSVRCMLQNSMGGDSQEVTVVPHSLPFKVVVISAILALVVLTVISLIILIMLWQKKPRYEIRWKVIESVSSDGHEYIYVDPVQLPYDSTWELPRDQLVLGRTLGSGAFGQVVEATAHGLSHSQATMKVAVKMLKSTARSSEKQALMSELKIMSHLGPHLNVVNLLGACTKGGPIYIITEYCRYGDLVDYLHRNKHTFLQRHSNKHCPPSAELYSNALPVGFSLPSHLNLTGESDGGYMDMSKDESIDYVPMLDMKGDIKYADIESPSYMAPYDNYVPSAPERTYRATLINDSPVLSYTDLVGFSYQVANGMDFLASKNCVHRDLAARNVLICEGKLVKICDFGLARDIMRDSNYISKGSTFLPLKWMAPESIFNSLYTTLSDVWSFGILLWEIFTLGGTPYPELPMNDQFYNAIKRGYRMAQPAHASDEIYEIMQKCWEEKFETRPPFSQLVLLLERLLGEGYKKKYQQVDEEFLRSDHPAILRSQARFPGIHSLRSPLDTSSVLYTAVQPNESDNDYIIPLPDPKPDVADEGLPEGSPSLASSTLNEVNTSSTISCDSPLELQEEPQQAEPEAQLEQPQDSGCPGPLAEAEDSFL

Consider `Cc1ccc(NC(=O)c2ccc(CN3CCN(C)CC3)cc2)cc1Nc1nccc(-c2cccnc2)n1` [imatinib], for which the viable cell number entry in experiment [1] is “decrease in the viable cell numbers”. Also, the MMP-2 gelatinase activity result in experiment [2] was “decrease in the level of MMP-2”. For the same compound, in experiment [3], the “PDGFR β phosphorylation” value is “downregulation of PDGFR β phosphorylation”.
